Drawing on patent US10508088B2, “Methods using HDAC11 inhibitors” (FORMA Therapeutics, Inc., priority 2016, dated 2019), this text covers IC50 for 34 compounds.

Bounds are passed on as bounds.

The IC50 is the concentration at which inhibition is half-maximal.

Chain of Full length human recombinant HDAC11 (Q96DB2 whole entry): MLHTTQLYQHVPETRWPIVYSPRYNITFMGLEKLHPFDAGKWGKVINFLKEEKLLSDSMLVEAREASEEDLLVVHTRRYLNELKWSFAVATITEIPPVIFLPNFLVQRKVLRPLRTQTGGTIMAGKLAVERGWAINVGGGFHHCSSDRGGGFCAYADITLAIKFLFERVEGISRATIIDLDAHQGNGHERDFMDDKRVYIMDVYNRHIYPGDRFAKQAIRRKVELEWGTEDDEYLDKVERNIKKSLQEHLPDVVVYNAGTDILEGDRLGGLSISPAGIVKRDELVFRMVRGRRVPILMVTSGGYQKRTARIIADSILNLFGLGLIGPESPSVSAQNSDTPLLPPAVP

The assay concerns the target Full length human recombinant HDAC11 (Homo sapiens (Human), UniProt Q96DB2). Kind of assay: Enzymatic HDAC11 assay, electrophoretic mobility shift. The assay is classed as biochemical. To be noted: substrate FAM-RHKK(tri-fluor-Ac)-NH2, read-out: HDAC11 IC50 Range. On the procedure: The enzymatic HDAC11 assay was performed using electrophoretic mobility shift assay. Full length human recombinant HDAC11 protein was expressed in baculoviral system and purified by affinity chromatography. The enzymatic reactions were assembled in 384 well plates in a total volume of 25 μL in a reaction buffer composing: 100 mM HEPES, pH 7.5, 25 mM KCl, 0.1% bovine serum albumin, 0.01% Triton X-100, 1% DMSO (from compounds) 2 μM of the fluorescently labeled peptide substrate and enzyme. The enzyme was added at a final concentration of 10 nM. The peptide substrate FAM-RHKK(tri-fluor-Ac)-NH2 was used. The compounds were tested at 12 concentrations spaced by 3× dilution intervals. Negative control samples (0%-inhibition in the absence of inhibitor) and positive control samples (100%-inhibition) were assembled in replicates of four in each assay plate. The reactions were incubated at 25° C. and quenched by the addition of 45 μL of termination buffer (100 mM HEPES, pH 7.5, 0.01% Triton X-100, 0.05% SDS).
The terminated assay plates were analyzed on LabChip® 3000 microfluidic electrophoresis instrument (Perkin Elmer/Caliper Life Sciences). The fluorescence intensity of the electrophoretically separated de-acetylated product and substrate peptide was measured. Activity in each sample was determined as the product to sum ratio (PSR):P/(S+P), where P is the peak height of the product peptide and S is the peak height of the substrate peptide. Percent inhibition (Pinh) is determined using the following equation: Pinh=(PSR0%−PSRinh)/(PSR0%−PSR100%)*100,
where PSRinh is the product sum ratio in the presence of inhibitor, PSR0% is the average product sum ration in the absence of inhibitor and PSR100% is the average product sum ratio in 100%-inhibition control samples. The IC50 values of inhibitors were determined by fitting the percent inhibition curves with 4 parameter dose-response model using XLfit 4 software.
In the case of `O=C(NO)c1cccc2c1CC1(CCN(Cc3ccccc3OC(F)(F)F)C1=O)C2` (stereo not shown) [II-32, N-hydroxy-2′-oxo-1′-(2-(trifluoromethoxy)benzyl)-1,3-dihydrospiro[indene-2,3′-pyrrolidine]-4-carboxamide], the IC50 lay within 500 to 1000 nM.
Consider `O=C(NO)c1cccc2c1CC1(CCN(Cc3cccc(Br)c3)C1=O)C2` (stereo not shown) [II-33, 1′-(3-bromobenzyl)-N-hydroxy-2′-oxo-1,3-dihydrospiro[indene-2,3′-pyrrolidine]-4-carboxamide], for which the IC50 was < 500 nM.
The figure for `O=C(NO)c1cccc2c1CC1(CCN(Cc3csc(-c4ccccc4)n3)C1=O)C2` (stereo not shown) [II-34, N-hydroxy-2′-oxo-1′-((2-phenylthiazol-4-yl)methyl)-1,3-dihydrospiro[indene-2,3′-pyrrolidine]-4-carboxamide] is > 1000 nM; for `O=C(NO)c1cccc2c1CC1(CCN(Cc3ccc(F)cc3F)C1=O)C2` (stereo not shown) [II-35, 1′-(2,4-difluorobenzyl)-N-hydroxy-2′-oxo-1,3-dihydrospiro[indene-2,3′-pyrrolidine]-4-carboxamide] it is > 1000 nM.
For `COc1ccccc1CN1CCC2(Cc3cccc(C(=O)NO)c3C2)C1=O` (stereo not shown) [II-36, N-hydroxy-1′-(2-methoxybenzyl)-2′-oxo-1,3-dihydrospiro[indene-2,3′-pyrrolidine]-4-carboxamide], the IC50 was > 1000 nM.
On to `O=C(NO)c1cccc2c1CC1(CCN(Cc3ccccc3-c3ccccc3)C1=O)C2` (stereo not shown) [II-37, 1′-([1,1′-biphenyl]-2-ylmethyl)-N-hydroxy-2′-oxo-1,3-dihydrospiro[indene-2,3′-pyrrolidine]-4-carboxamide], for which the IC50 is < 500 nM.
The figure for `O=C(NO)c1cccc2c1CC1(CCN(Cc3ccc(Cl)c(Cl)c3)C1=O)C2` (stereo not shown) [II-38, 1′-(3,4-dichlorobenzyl)-N-hydroxy-2′-oxo-1,3-dihydrospiro[indene-2,3′-pyrrolidine]-4-carboxamide] is < 500 nM; for `Cc1ccc(CN2CCC3(Cc4cccc(C(=O)NO)c4C3)C2=O)cc1C` (stereo not shown) [II-39, 1′-(3,4-dimethylbenzyl)-N-hydroxy-2′-oxo-1,3-dihydrospiro[indene-2,3′-pyrrolidine]-4-carboxamide] it is 500 to 1000 nM.
With `COc1cc(CN2CCC3(Cc4cccc(C(=O)NO)c4C3)C2=O)cc(OC)c1` (stereo not shown) [II-40, 1′-(3,5-dimethoxybenzyl)-N-hydroxy-2′-oxo-1,3-dihydrospiro[indene-2,3′-pyrrolidine]-4-carboxamide], the IC50 is > 1000 nM.
Under `O=C(NO)c1cccc2c1CC1(CCN(Cc3ccc(OCc4ccccc4)cc3)C1=O)C2` (stereo not shown) [II-41, 1′-(4-(benzyloxy)benzyl)-N-hydroxy-2′-oxo-1,3-dihydrospiro[indene-2,3′-pyrrolidine]-4-carboxamide] stands < 500 nM; under `O=C(NO)c1cccc2c1CC1(CCN(Cc3cccc(OC(F)(F)F)c3)C1=O)C2` (stereo not shown) [II-42, N-hydroxy-2′-oxo-1′-(3-(trifluoromethoxy)benzyl)-1,3-dihydrospiro[indene-2,3′-pyrrolidine]-4-carboxamide], < 500 nM.
Under `O=C(NO)c1cccc2c1CC1(CCN(Cc3cccc(C(F)(F)F)c3F)C1=O)C2` (stereo not shown) [II-43, 1′-(2-fluoro-3-(trifluoromethyl)benzyl)-N-hydroxy-2′-oxo-1,3-dihydrospiro[indene-2,3′-pyrrolidine]-4-carboxamide] stands < 500 nM; under `O=C(NO)c1cccc2c1CC1(CCN(CC3CCCCC3)C1=O)C2` (stereo not shown) [II-44, 1′-(cyclohexylmethyl)-N-hydroxy-2′-oxo-1,3-dihydrospiro[indene-2,3′-pyrrolidine]-4-carboxamide], > 1000 nM.
The figure for `O=C(NO)c1cccc2c1CC1(CCN(Cc3cc(Cl)ccc3Cl)C1=O)C2` (stereo not shown) [II-45, 1′-(2,5-dichlorobenzyl)-N-hydroxy-2′-oxo-1,3-dihydrospiro[indene-2,3′-pyrrolidine]-4-carboxamide] is 500 to 1000 nM; for `O=C(NO)c1cccc2c1CC1(CCN(Cc3cc(-c4ccccc4)no3)C1=O)C2` (stereo not shown) [II-46, N-hydroxy-2′-oxo-1′-((3-phenylisoxazol-5-yl)methyl)-1,3-dihydrospiro[indene-2,3′-pyrrolidine]-4-carboxamide] it is > 1000 nM; for `O=C(NO)c1cccc2c1CC1(CCN(Cc3ccc(-n4cccn4)nc3)C1=O)C2` (stereo not shown) [II-47, 1′-((6-(1H-pyrazol-1-yl)pyridin-3-yl)methyl)-N-hydroxy-2′-oxo-1,3-dihydrospiro[indene-2,3′-pyrrolidine]-4-carboxamide] it is > 1000 nM.
For the compound `O=C(NO)c1cccc2c1CC1(CCN(Cc3ccc(C(F)(F)F)nc3)C1=O)C2` (stereo not shown) [II-48, N-hydroxy-2′-oxo-1′-((6-(trifluoromethyl)pyridin-3-yl)methyl)-1,3-dihydrospiro[indene-2,3′-pyrrolidine]-4-carboxamide], the IC50 was > 1000 nM.
Under `O=C(NO)c1cccc2c1CC1(CCN(Cc3noc(C4CCOCC4)n3)C1=O)C2` (stereo not shown) [II-49, N-hydroxy-2′-oxo-1′-((5-(tetrahydro-2H-pyran-4-yl)-1,2,4-oxadiazol-3-yl)methyl)-1,3-dihydrospiro[indene-2,3′-pyrrolidine]-4-carboxamide] stands > 1000 nM.
Under `Cc1noc(C)c1CN1CCC2(Cc3cccc(C(=O)NO)c3C2)C1=O` (stereo not shown) [II-50, 1′-((3,5-dimethylisoxazol-4-yl)methyl)-N-hydroxy-2′-oxo-1,3-dihydrospiro[indene-2,3′-pyrrolidine]-4-carboxamide] stands > 1000 nM; under `O=C(NO)c1cccc2c1CC1(CCN(Cc3cccc(C(F)(F)F)n3)C1=O)C2` (stereo not shown) [II-51, N-hydroxy-2′-oxo-1′-((6-(trifluoromethyl)pyridin-2-yl)methyl)-1,3-dihydrospiro[indene-2,3′-pyrrolidine]-4-carboxamide], > 1000 nM; under `O=C(NO)c1cccc2c1CC1(CCN(CCN3CCOCC3)C1=O)C2` (stereo not shown) [II-52, N-hydroxy-1′-(2-morpholinoethyl)-2′-oxo-1,3-dihydrospiro[indene-2,3′-pyrrolidine]-4-carboxamide], > 1000 nM.
On to `O=C(NO)c1cccc2c1CC1(CCN(Cc3cn(-c4ccccc4)nn3)C1=O)C2` (stereo not shown) [II-53], for which the IC50 is > 1000 nM.
Under `O=C(NO)c1cccc2c1CC1(CCN(CC3CC3)C1=O)C2` (stereo not shown) [II-55, 1′-(cyclopropylmethyl)-N-hydroxy-2′-oxo-1,3-dihydrospiro[indene-2,3′-pyrrolidine]-4-carboxamide] stands > 1000 nM; under `O=C(NO)c1cccc2c1CC1(CCN(Cc3ccc(C(F)(F)F)cc3)C1)C2` (stereo not shown) [II-56, N-hydroxy-1′-(4-(trifluoromethyl)benzyl)-1,3-dihydrospiro[indene-2,3′-pyrrolidine]-4-carboxamide], 500 to 1000 nM; under `O=C(NO)c1cccc2c1CC1(CCN(C3CC3)C1)C2` (stereo not shown) [II-57, 1′-cyclopropyl-N-hydroxy-1,3-dihydrospiro[indene-2,3′-pyrrolidine]-4-carboxamide], > 1000 nM.
Turning to `O=C(NO)c1cccc2c1CC1(CCN(C(=O)c3ccc(C(F)(F)F)cc3)C1)C2` (stereo not shown) [II-58, N-hydroxy-1′-(4-(trifluoromethyl)benzoyl)-1,3-dihydrospiro[indene-2,3′-pyrrolidine]-4-carboxamide], the IC50 was > 1000 nM.
For `CC(=O)N1CCC2(Cc3cccc(C(=O)NO)c3C2)C1` (stereo not shown) [II-59, 1′-acetyl-N-hydroxy-1,3-dihydrospiro[indene-2,3′-pyrrolidine]-4-carboxamide], the IC50 was > 1000 nM.
Regarding `CC(=O)N1CCC2(CC1)Cc1cccc(C(=O)NO)c1C2` [II-60, 1′-acetyl-N-hydroxy-1,3-dihydrospiro[indene-2,4′-piperidine]-4-carboxamide], the IC50 was > 1000 nM.
As for `O=C(NO)c1cccc2c1CC1(CCN(C(=O)c3ccc(Cl)cc3)CC1)C2` [II-61, 1′-(4-chlorobenzoyl)-N-hydroxy-1,3-dihydrospiro[indene-2,4′-piperidine]-4-carboxamide], the IC50 is > 1000 nM.
`O=C(NO)c1cccc2c1CC1(CCN(Cc3ccc(Cl)cc3)CC1)C2` [II-62, 1′-(4-chlorobenzyl)-N-hydroxy-1,3-dihydrospiro[indene-2,4′-piperidine]-4-carboxamide]: the IC50 is > 1000 nM.
Turning to `O=C(NO)c1cccc2c1CC1(CCN(C3CC3)CC1)C2` [II-63, 1′-cyclopropyl-N-hydroxy-1,3-dihydrospiro[indene-2,4′-piperidine]-4-carboxamide], the IC50 was > 1000 nM.
The figure for `O=C(NO)c1cccc2c1CC1(CCN(Cc3ccccc3)CC1)C2` [II-64, 1′-benzyl-N-hydroxy-1,3-dihydrospiro[indene-2,4′-piperidine]-4-carboxamide] is > 1000 nM; for `O=C(NO)c1cccc2c1CC1(CCN(Cc3ccccc3)CC1)C2=O` [II-65, 1′-benzyl-N-hydroxy-1-oxo-1,3-dihydrospiro[indene-2,4′-piperidine]-4-carboxamide] it is > 1000 nM.
As to `O=C(NO)c1cccc2c1CC1(CCN(Cc3ccccc3)CC1)C2O` (stereo not shown) [II-66, 1′-benzyl-N,1-dihydroxy-1,3-dihydrospiro[indene-2,4′-piperidine]-4-carboxamide], the IC50 is > 1000 nM.
